Test results published in patent US8637455B2, “Compositions and methods for delivery of glycopeptide antibiotics to medical device surfaces” (Affinergy, LLC, priority 2007, dated 2014).
*1 amine or outer side, *2 acyl side, *3 side chain or, on linkers, in order; H or OH if unused. Bridges are numbered along the chain shown (N, C = ends). Where no end group is shown, it is not given here. [ ]: non-standard residue; d: D form. The star is where a group is joined. (miniPEG)2 = linker of two mini-PEG units, (HN—CH2—CH2—O—CH2—CH2—O—CH2—C═O)2, O=C(COCCOCCN[*:1])NCCOCCOCC(=O)[*:2]; Myristoyl = CCCCCCCCCCCCCC(=O)*; Aun = NCCCCCCCCCCC(=O)O; AEEA = NCCOCCOCC(=O)O; Ahx = NCCCCCC(=O)O

Experiments:
[1] = system: Staphylococcus aureus strain MZ100; test: In vitro infection assay on titanium beads, colony counts; format: cell-based; details: peptide 5 μM + vancomycin 100 μM
Protocol: To illustrate the antibacterial activity of the peptide compositions, an in vitro infection assay was performed. Briefly, a surface material was contacted with one of the peptide compositions such that the peptide binds to the surface material. The peptide composition can have glycopeptide antibiotic already bound thereto at the time of contacting the peptide with the surface material, or the glycopeptide antibiotic can be contacted with the peptide in a step subsequent to binding the peptide composition to the surface material. The surface material was washed to remove unbound glycopeptide antibiotic, and then contacted with bacterial cells (added from a culture in log phase growth) and incubated to promote bacterial growth. The surface material was washed, and any bacterial cells colonizing the surface material removed and plated to assess bacterial growth.
In one example, Staphylococcus aureus strain MZ100 was used as the representative bacterial cells. First, as a representative surface material, titanium beads were sterilized in acetone in a sonication bath, and then air dried in a sterile hood. The beads were individually placed in sterilized microfuge tubes (one bead per tube). […] The next day, the plates were examined for bacterial growth, and the number of bacterial colonies was quantified per plate.

[2] = system: S. aureus; test: Bacterial growth with loaded titanium beads, optical density at 600 nm; format: cell-based; details: peptide 10 μM + vancomycin 200 μM, 37° C. for 18 hours
Protocol: In another experiment, antimicrobial activity of the peptide compositions was measured as follows. Titanium beads were placed into wells of a 96 well plate. To each well was added a 10 μM of peptide composition comprising at least one surface-binding peptide coupled to at least one glycopeptide antibiotic binding peptide and vancomycin at 200 μM. The appropriate negative controls were also included. The plate was incubated for 1 hour at 20° C., and then the wells and beads were washed 4 times with buffer. After washing, the beads were transferred to the well of a plate containing S. aureus in log phase growth and incubated at 37° C. for 18 hours. Bacterial growth was assessed by reading optical density at 600 nm.

[3] = Vancomycin loading on titanium surface by peptide compositions (HPLC assay); format: binding; details: peptide at 10 μM; vancomycin 200 μM; titanium beads; 30 minutes, 4 washes
Protocol: In one experiment, titanium beads were placed into wells of a 96 well plate. To each well was added a range of concentrations (1-50 μM) of peptide composition comprising at least one surface-binding peptide coupled to at least one glycopeptide antibiotic binding peptide and vancomycin at 200 μM. The appropriate negative controls were also included. The plate was incubated for 30 minutes, and then the wells and beads were washed 4 times with buffer. After washing, 10 mM HCl was added to each well to elute remaining vancomycin from the metal bead. Bound vancomycin was measured by HPLC assay at detection wavelength 214 nm. […] In addition, binding assays performed using stainless steel rather than titanium beads as a representative surface material yielded similar results.

[4] = system: S. aureus MZ100; test: In vitro infection model on titanium pins, colony counts; format: cell-based; details: composition 5 μM + vancomycin 100 μM, two hours with S. aureus MZ100
Protocol: Acetone-sterilized titanium pins (1 mm diameter, 12 mm long) were first washed in PBS. These pins were then incubated in a solution (PBS) containing the respective composition (5 μM)+vancomycin (100 μM) for 15 minutes at room temperature, with intermittent inversion for coating. Each pin was then washed extensively in PBS and placed in 30 μL of S. aureus MZ100 cultured at 10^6 colony forming units (cfu) per mL, according to methods above. The coated pins were then inoculated in 30 mm lengths of 1.5 mm diameter silicone tubing, with closed ends. After incubation for two hours with shaking, the pin was placed in a new tube containing 1 mL PBS. After inverting several times, PBS was aspirated, and replaced with a fresh 1 mL of PBS. The pins were then sonicated at 20 kHz for four cycles of 15 seconds each. Supernatants (100 μL) and dilutions were plated on trypticase soy agar (TSA) plates, incubated for 24 hours at 37° C., and colonies were counted. An assay control included the same steps of the infection model, except that the pin is uncoated pin (i.e., without composition according to the presently disclosed subject matter bound thereto) (“Control”). As representative examples, compositions comprising the amino acid sequences of SEQ ID NOs: 125 and 126 were tested for antimicrobial activity using the in vitro infection model (see, Table 7, “A” & “B”, respectively).

[5] = Binding assay of peptide for gentamycin; details: gentamycin (an aminoglycoside antibiotic); similar assay format as for vancomycin
Protocol: Using a similar binding assay format as described herein for vancomycin, the ability of a peptide comprising the amino acid sequence of SEQ ID NO: 1 to bind gentamycin (an aminoglycoside antibiotic) was determined.

[6] = Binding of alkaline-phosphatase linked peptides to immobilized biotinylated vancomycin; details: absorbance at 405 nm
Excerpt: From the peptide amino acid sequence […] (SEQ ID NO: 1) additional peptides were designed and expressed in the bacterial expression system described herein to further evaluate structure-function relationships. A truncated peptide comprising the amino acid sequence of SEQ ID NO:9 (STCLIDMYGVCH) was expressed and compared to a peptide comprising SEQ ID NO:1 for binding affinity for glycopeptide antibiotic. Also produced were a dimer of this truncated peptide (SEQ ID NO:10; […]), a D to A substitution (SEQ ID NO:11; STCLIAMYGVCH), a D to E substitution (SEQ ID NO:12; STCLIEMYGVCH), and a G to S substitution (SEQ ID NO:13; STCLIDMYSVCH). Relative binding strengths of these peptides and of other representative peptides to glycopeptide antibiotic were determined by EC50 values for binding to vancomycin or other glycopeptide antibiotic.
A typical binding assay for glycopeptide antibiotic was performed according to the following procedure. The concentrations of the alkaline-phosphatase linked variant peptides were normalized to equal levels based on the alkaline-phosphatase activity as determined in a kinetic assay with the alkaline-phosphatase specific chromogenic substrate p-nitrophenyl phosphate (p-NPP). A streptavidin coated microtiter plate was coated with biotinylated vancomycin. Serial dilutions of normalized alkaline-phosphatase linked peptides were allowed to bind to the immobilized vancomycin and detected by addition of the alkaline-phosphatase specific chromogenic substrate p-NPP. Relative affinity for peptide binding to the immobilized vancomycin was determined by measuring the absorbance at 405 nm of the colored product of the alkaline phosphatase reaction. […] EC50 values for the synthetic peptides binding to vancomycin were determined as described in Example 1 and are shown in Table 3. Preferred are peptides that bind to glycopeptide antibiotic with binding affinity of EC50 of less than or equal to about 1 μM, and more preferably, in the nanomolar range (e.g., <0.1 μM).

[7] = system: binding between vancomycin and a peptide comprising the amino acid sequence of SEQ ID NO:1; test: Inhibition by Lys-D-Ala-D-Ala of specific binding between vancomycin and peptide SEQ ID NO:1
Protocol: As an example, illustrated is the inhibition by Lys-D-Ala-D-Ala of specific binding between vancomycin and a peptide comprising the amino acid sequence of SEQ ID NO:1. To the wells of a 96 well plate coated with streptavidin was added 100 μl of a 0.2 μM solution of biotinylated peptide in buffer-T. After incubation, the wells were blocked by adding 200 μl of a 0.5 mM solution of biotin in buffer-T. The plates were then washed three times with buffer-T. Serial dilutions of Lys-D-Ala-D-Ala were prepared, and added individually to the wells such that Lys-D-Ala-D-Ala ranged in a final concentration of from about 1 μM to about 200 μM (in a volume of 35 μl). Also added to each well was 35 μl of biotinylated vancomycin (20 nM final concentration), and the plate was incubated at 30 minutes for room temperature. The wells were then washed three times with buffer-T, followed by the addition of 100 μl of streptavidin-alkaline phosphatase conjugate (1 mg/ml diluted 1:500 in buffer-T). Following a 30 minute incubation, the wells were washed five times with buffer-T. Added to each well was 100 μl of pNPP, followed by colorimetric detection after 12 minutes at an absorbance of 405 nm.

Substance: NHTISKNHKKKNKNSNKTR [SEQ ID NO: 119]
- # of bacterial colonies ([1]; 2 hour incubation with MZ100): 0

Substance: 131 (SSCLIDIYGVCHNFDAY[AEEA][AEEA]SSHRTNHKKNNPKKKNKTRGSSGK; disulfide 3-11 (inferred)) [compound 131]
- inhibition of bacterial growth [2]: complete inhibition
- Picomoles vancomycin/cm^2 [3]: 76 Picomoles vancomycin/cm^2

Substance: Myr-Ahx-SSCLIDIYGVCHNFDAY-(miniPEG)2-HKKNNPKKKNKTRGSSK ({Myristoyl-Ahx}-SSCLIDIYGVCHNFDAY[(miniPEG)2]HKKNNPKKKNKTRGSSK; disulfide 3-11 (inferred)) [SEQ ID NO: 125]
- # of bacterial colonies (CFU) [4]: 100 CFU

Substance: AUD-AUD-AUD-SSCLIDIYGVCHNFDAY-(miniPEG)2-HKKNNPKKKNKTRGSSK ([Aun][Aun][Aun]SSCLIDIYGVCHNFDAY[(miniPEG)2]HKKNNPKKKNKTRGSSK; disulfide 6-14 (inferred)) [SEQ ID NO: 126]
- # of bacterial colonies (CFU) [4]: <10 CFU

Substance: CLIDMYGVCHNFDGAYDS [compound 1]
- binding affinity for gentamycin [5]: lacked significant binding affinity

Substance: 12 (STCLIEMYGVCH) [compound 12]
- glycopeptide antibiotic binding [6]: no detectable glycopeptide antibiotic binding

Substance: 119 (NHTISKNHKKKNKNSNKTR) [compound 119]
- bacterial growth on the plates [1]: completely inhibited

Substance: 13 (STCLIDMYSVCH) [compound 13]
- glycopeptide antibiotic binding [6]: no detectable glycopeptide antibiotic binding

Substance: 130 (SSCLIDIYGVCHNFDAY[AEEA][AEEA]HKKNNPKKKNKTRGSSK; disulfide 3-11 (inferred)) [compound 130]
- inhibition of bacterial growth [2]: complete inhibition
- Picomoles vancomycin/cm^2 [3]: 83 Picomoles vancomycin/cm^2

Substance: Lys-D-Ala-D-Ala
- inhibition of binding between vancomycin and peptide ([7]; Lys-D-Ala-D-Ala between 100 μM to 200 μM): ~100%
- IC50 ([7]; biotinylated vancomycin 20 nM, immobilized peptide SEQ ID NO:1, read-out: concentration of Lys-D-Ala-D-Ala needed to inhibit about 50% of the binding between vancomycin and peptide): ~10 µM

Substance: STCLIDMYGVCHSSCLIDMYGVCH [compound 10]
- glycopeptide antibiotic binding [6]: displayed glycopeptide antibiotic binding

Substance: 11 (STCLIAMYGVCH) [compound 11]
- glycopeptide antibiotic binding [6]: no detectable glycopeptide antibiotic binding

Substance: STCLIDMYGVCH [compound 9]
- glycopeptide antibiotic binding [6]: displayed glycopeptide antibiotic binding
